# Test results published in PMC4259414, “HS-133, a novel fluorescent phosphatidylinositol 3-kinase inhibitor as a potential imaging and anticancer agent for targeted therapy” (Oncotarget, 2014).
# Key:
# [1] = system: HIF-1α and VEGF in SkBr3 cells; assay: hypoxia-induced HIF-1α and VEGF, Western blotting and ELISA; assay type: cell-based, human
# Procedure: Since HIF-1α is the major regulator of cellular adaptive responses to hypoxia, we examined the effect of HS-133 on the expression of the HIF-1α in SkBr3 cells. The cells were treated with various concentrations of HS-133 (1–50 μM) under hypoxic mimicking conditions induced by a treatment with 100 μM CoCl2 for 16 h. […] To further determine the effect of HS-133 on hypoxia-induced VEGF, an immediate downstream target gene of HIF-1α, the protein and production of VEGF were measured by western blotting and ELISA in the SkBr3 cells.
# (§1) The cells were washed three times with ice-cold PBS before lysis, and were lysed with a buffer containing 1% Triton X-100, 1% Nonidet P-40 (NP-40), as well as protease and phosphatase inhibitor cocktails (GenDEPOT, Barker, TX). Equal amounts of protein were separated by 10% sodium dodecyl sulfate-polyacrylamide gel electrophoresis (SDS-PAGE) and transferred onto the polyvinylidene fluoride (PVDF) membranes (Millipore, Bedford, MA). Immunostaining was performed by incubating the blots with primary antibodies, followed by horseradish peroxidase (HRP)-conjugated secondary antibody and detected with an enhanced chemiluminescence (ECL) plus system (Amersham Biosciences, Piscataway, NJ). […]
# The amount of VEGF secreted into the media was measured by sandwich ELISA. […] The absorbance at 450 nm was measured with a 96-well plate reader.
# HUVECs [2] = assay: wound migration assay; assay type: cell-based, human; details: HUVECs, 1, 5, or 10 μM, 18 h
# Procedure: (§2) To examine the effect of HS-133 on angiogenesis, a capillary tube formation assay using human umbilical vein endothelial cells (HUVECs) was performed. […] Cell migration is critical for the endothelial cells to form blood vessels during angiogenesis, and is necessary for tumor growth and metastasis. Thus, we conducted a wound migration assay to study the effect of HS-133 on cell migration. […] Considering that endothelial migration and tube formation have all highly relevant properties of angiogenesis, our results illustrated that HS-133 has the ability to block angiogenesis.
# HUVECs plated on 60 mm-diameter culture dishes at 90% confluence, were wounded 2 mm in width with a sterile razor blade and marked at the injury line. […] HUVECs were allowed to migrate for 18 h and were rinsed with a serum-free medium, followed by fixing with absolute methanol and staining with Giemsa (Sigma-Aldrich). Migration was quantitated with counting the number of cells that moved beyond the reference line.
# [3] = system: PI3K/Akt pathway in SkBr3 cells; assay: Western blotting of PI3K/Akt signaling in SkBr3 cells; assay type: cell-based, human; details: SkBr3, 1–50 μM, 6 h
# Procedure: It has been shown that breast tumor cell growth is closely related to the activation of the PI3K/Akt pathway. […] Therefore, we evaluated the effects of HS-133 on the PI3K/Akt pathway in breast cancer cells. The PI3K inhibitory activity of HS-133 was assessed in the SkBr3 cells.
# as §1, with “NJ). The primary mouse antibodies against the following factors were used: p27 (Cell Signaling Technologies, Danvers, MA), cyclin D1, hypoxia-inducible factor-1α (HIF-1α, BD Biosciences, SanJose, CA), VEGF (Novus Biologicals, Littleton, CO) and β-actin (Abcam, Cambridge, MA).” for “NJ).”
# T47D cells = assay: cell viability MTT assay, T47D; assay type: cell-based; details: Homo sapiens, 48 h, read-out: IC50, cell growth inhibition
# Procedure: (§3) To determine whether HS-133 can function as a novel anticancer compound, we tested the ability of this compound to inhibit the growth of breast cancer cell lines (SkBr3, T47D, and MCF-7) using an MTT assay. The cells were exposed to various concentrations (0.5–50 μM) of HS-133 for 48 h. As shown in Fig. 3A-C, HS-133 inhibited the growth of all three breast cancer cell lines in a dose-dependent manner.
# (§4) Cell viability was performed by an MTT assay. Briefly, the SkBr3, T47D, and MCF-7 cells were plated at a density of 1-5 × 10^3 cells/well in a 96-well plate for 48 h. The medium was removed, and the cells were treated with either DMSO as control or various concentrations of HS-133. The final concentration of DMSO in the medium was ≤ 0.1% (v/v). After the cells were incubated for 48 h, 20 μl of MTT solutions (2 mg/ml) was added to each well for another 4 h at 37°C. The formazan crystals that formed were dissolved in DMSO (200 μl/well) via constant shaking for 5 min. The plate was then read on a microplate reader at 540 nm. Three replicate wells were used for each analysis. The median inhibitory concentration (IC50, defined as the drug concentration at which cell growth was inhibited by 50%) was assessed from the dose-response curves.
# SkBr3 cells = assay: cell viability MTT assay, SkBr3; assay type: cell-based; details: Homo sapiens, SK-BR-3, 48 h, SkBr3, 48 h, read-out: IC50, cell growth inhibition
# Procedure: as §3, §4
# HUVECs [4] = assay: tube formation assay; assay type: cell-based, human; details: 20 h
# Procedure: as §2
# A 10 mg/ml (200 μl) of Matrigel (BD Biosciences) was polymerized for 30 min at 37°C. HUVECs were suspended in M199 (2% FBS) medium containing VEGF (50 ng/ml) at a density of 2.5 × 10^5 cells/ml, and 0.2 ml of cell suspension was added to each well coated with Matrigel, together with or without the indicated concentrations of HS-133 for 20 h. The morphological changes of the cells and tubes formed were observed under a phase-contrast microscope and photographed at 200× and 400× magnification.
# MCF-7 cells = assay: cell viability MTT assay, MCF-7; assay type: cell-based; details: Homo sapiens, MCF7, MCF-7, 48 h, read-out: IC50, cell growth inhibition
# Procedure: as §3, §4
smiles,measurement,setting,value
"CC(=O)Nc1ccc(-c2nc3c(c(=O)n(C)c(=O)n3C)n2-c2cccc(F)c2)cc1 [HS-133, N-(4-(7-(3-Fluorophenyl)-1,3-dimethyl-2,6-dioxo-2,3,6,7-tetrahydro-1H-purin-8-yl)phenyl) acetamide]",hypoxia-induced HIF-1α expression,"[1]; SkBr3, 1–50 μM, 100 μM CoCl2, 16 h",inhibited the hypoxia-induced HIF-1α expression
same,hypoxia-induced VEGF expression and production,"[1]; SkBr3, CoCl2, Western blotting and ELISA",suppress the VEGF expression and production in a dose-dependent manner
same,cell migration,HUVECs [2],significantly inhibited
same,"phosphorylation of Akt, mTOR, p70S6K and 4E-BP1",[3],effectively suppressed
same,IC50,T47D cells,9.4 µM
same,IC50,SkBr3 cells,46.8 µM
same,capillary tube formation,HUVECs [4],inhibited the formation of vessel-like structures
same,IC50,MCF-7 cells,9.15 µM
